In PubChem BioAssay AID330 (DTP/NCI, 2004):
Several values for one entry are separate records, joined by “and”; a condition that tells them apart may be missing. Equal entries are not always repeated. Inconclusive results and toxic doses are left out. Rule for the calls: active = survival T/C of 150% or more; inactive = T/C below 125% in these data.

Tested on: P388 leukemia ip, CD2F1 mice, survival T/C
Experiment: NCI In Vivo Anticancer Drug Screen. Data for tumor model P388 Leukemia (intraperitoneal) in CD2F1 (CDF1) mice
Settings: endpoint: median survival time, higher = longer survival
Procedure, shortened: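 Mice carrying the transplanted tumor received test compound or vehicle. Survival was recorded in each group, and the value is the treated-group measurement divided by that of the vehicle-treated control group.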

[1] = dose: 50.0 mg/kg/injection, schedule: Q01DX009 (ip), vehicle: Klucel (hydroxypropylcellulose) (HPC)
[2] = dose: 100.0 mg/kg/injection, schedule: Q01DX009 (ip), vehicle: Klucel (hydroxypropylcellulose) (HPC)
[3] = dose: 50.0 mg/kg/injection, schedule: Q01DX005 (ip), vehicle: saline with Tween-80
[4] = dose: 100.0 mg/kg/injection, schedule: Q01DX005 (ip), vehicle: saline with Tween-80
[5] = dose: 50.0 mg/kg/injection, schedule: Q01DX005 (ip), vehicle: saline
[6] = dose: 100.0 mg/kg/injection, schedule: Q01DX005 (ip), vehicle: saline
[7] = dose: 200.0 mg/kg/injection, schedule: Q01DX005 (ip), vehicle: saline
[8] = dose: 50.0 mg/kg/injection, schedule: Q01DX005 (ip), vehicle: Klucel (hydroxypropylcellulose) (HPC)
[9] = dose: 100.0 mg/kg/injection, schedule: Q01DX005 (ip), vehicle: Klucel (hydroxypropylcellulose) (HPC)
[10] = dose: 200.0 mg/kg/injection, schedule: Q01DX005 (ip), vehicle: Klucel (hydroxypropylcellulose) (HPC)
[11] = dose: 60.0 mg/kg/injection, schedule: Q01DX005 (ip), vehicle: saline with Tween-80
[12] = dose: 120.0 mg/kg/injection, schedule: Q01DX005 (ip), vehicle: saline with Tween-80
[13] = dose: 240.0 mg/kg/injection, schedule: Q01DX005 (ip), vehicle: saline with Tween-80
[14] = dose: 50.0 mg/kg/injection, schedule: Q01DX009 (ip), vehicle: saline with Tween-80
[15] = dose: 100.0 mg/kg/injection, schedule: Q01DX009 (ip), vehicle: saline with Tween-80
[16] = dose: 200.0 mg/kg/injection, schedule: Q01DX009 (ip), vehicle: saline with Tween-80
[17] = dose: 100.0 mg/kg/injection, schedule: Q04DX002 (ip), vehicle: saline with Tween-80
[18] = dose: 100.0 mg/kg/injection, schedule: Q04DX003 (ip), vehicle: saline
[19] = dose: 200.0 mg/kg/injection, schedule: Q04DX003 (ip), vehicle: saline
[20] = dose: 400.0 mg/kg/injection, schedule: Q04DX003 (ip), vehicle: saline

Measured: T/C

CN(C)/N=C/c1c[nH]c2ccccc12
inactive: dose: 6.25 mg/kg/injection, schedule: Q01DX009 (ip), vehicle: Klucel (hydroxypropylcellulose) (HPC) 105 % of control | dose: 12.5 mg/kg/injection, schedule: Q01DX009 (ip), vehicle: Klucel (hydroxypropylcellulose) (HPC) 103 % of control | dose: 25.0 mg/kg/injection, schedule: Q01DX009 (ip), vehicle: Klucel (hydroxypropylcellulose) (HPC) 100 % of control | [1] 118 % of control | [2] 111 % of control

COc1cc2c(c(OC)c1OC)-c1ccc(OC)c(=O)cc1C(NC(=O)CO)CC2 (stereo not drawn)
inactive: dose: 0.16 mg/kg/injection, schedule: Q01DX009 (ip), vehicle: Klucel (hydroxypropylcellulose) (HPC) 104 % of control and 111 % of control
active: dose: 0.62 mg/kg/injection, schedule: Q01DX009 (ip), vehicle: Klucel (hydroxypropylcellulose) (HPC) 153 % of control and 157 % of control

O=P(c1ccccc1)(c1ccccc1)C(O)c1ccncc1 (stereo not drawn)
inactive: [1] 102 % of control | [2] 103 % of control | dose: 200.0 mg/kg/injection, schedule: Q01DX009 (ip), vehicle: Klucel (hydroxypropylcellulose) (HPC) 103 % of control

C=C1C[C@@]2(OC)OCC[C@H]3C(C)=CCC(C1=O)[C@]32C(=O)OC (stereo partly drawn)
inactive: [3] 105 % of control | [4] 105 % of control

CCCNCC(=O)Nc1ccccc1NC(=O)CNCCC
inactive: [5] 100 % of control | [6] 102 % of control | [7] 100 % of control

O=c1cccc(C2CC(CO)C3CCCCN3C2)[nH]1 (stereo not drawn)
inactive: dose: 1.1 mg/kg/injection, schedule: Q01DX009 (ip), vehicle: distilled water + Tween-80 + alcohol 86 % of control | dose: 1.5 mg/kg/injection, schedule: Q01DX009 (ip), vehicle: acid diluted with CMC 96 % of control | dose: 2.2 mg/kg/injection, schedule: Q01DX009 (ip), vehicle: acid diluted with CMC 99 % of control | dose: 2.2 mg/kg/injection, schedule: Q01DX009 (ip), vehicle: distilled water + Tween-80 + alcohol 93 % of control | dose: 4.5 mg/kg/injection, schedule: Q01DX009 (ip), vehicle: acid diluted with CMC 96 % of control | dose: 4.5 mg/kg/injection, schedule: Q01DX009 (ip), vehicle: distilled water + Tween-80 + alcohol 93 % of control | dose: 9.0 mg/kg/injection, schedule: Q01DX009 (ip), vehicle: acid diluted with CMC 99 % of control and 93 % of control | dose: 9.0 mg/kg/injection, schedule: Q01DX009 (ip), vehicle: distilled water + Tween-80 + alcohol 103 % of control | dose: 18.0 mg/kg/injection, schedule: Q01DX009 (ip), vehicle: acid diluted with CMC 94 % of control

C(=N\N1CN(/N=C/c2ccccc2)C(c2ccccc2)C1c1ccccc1)/c1ccccc1 (stereo not drawn)
inactive: dose: 12.5 mg/kg/injection, schedule: Q01DX005 (ip), vehicle: Klucel (hydroxypropylcellulose) (HPC) 89 % of control | dose: 25.0 mg/kg/injection, schedule: Q01DX005 (ip), vehicle: Klucel (hydroxypropylcellulose) (HPC) 99 % of control | [8] 99 % of control and 97 % of control | [9] 99 % of control | [10] 108 % of control

CC1(C)COP(Oc2ccccc2)OC1
inactive: dose: 25.0 mg/kg/injection, schedule: Q01DX009 (ip), vehicle: saline + Tween-80 + alcohol 102 % of control | dose: 50.0 mg/kg/injection, schedule: Q01DX009 (ip), vehicle: saline + Tween-80 + alcohol 103 % of control | dose: 100.0 mg/kg/injection, schedule: Q01DX009 (ip), vehicle: saline + Tween-80 + alcohol 100 % of control | dose: 200.0 mg/kg/injection, schedule: Q01DX009 (ip), vehicle: saline + Tween-80 + alcohol 96 % of control

O=C(NC(Cc1ccc(I)cc1)C(=O)O)c1ccc(I)cc1 (stereo not drawn)
inactive: [8] 96 % of control | [9] 104 % of control | [10] 104 % of control

CN(C)c1cc2nc3ccccc3nc2cc1O
inactive: dose: 50.0 mg/kg/injection, schedule: Q01DX009 (ip), vehicle: saline 95 % of control | dose: 100.0 mg/kg/injection, schedule: Q01DX009 (ip), vehicle: saline 92 % of control | dose: 200.0 mg/kg/injection, schedule: Q01DX009 (ip), vehicle: saline 100 % of control

N#CC1=CNc2ccccc2N=C1N
inactive: [3] 104 % of control | [4] 99 % of control

O=C1OCCC1C(=O)c1ccccc1 (stereo not drawn)
inactive: dose: 50.0 mg/kg/injection, schedule: Q01DX001 (ip), vehicle: saline 112 % of control | dose: 100.0 mg/kg/injection, schedule: Q01DX001 (ip), vehicle: saline 112 % of control | dose: 200.0 mg/kg/injection, schedule: Q01DX001 (ip), vehicle: saline 97 % of control

CCN(CC)C(=O)c1cccc2c1OCO2
inactive: [11] 94 % of control | [12] 98 % of control | [13] 95 % of control

CCCCCCC1(/C=C\c2ccccc2)OCCO1
inactive: [14] 102 % of control | [15] 110 % of control | [16] 101 % of control

CC(O)C(=O)NC1CCCCC1 (stereo not drawn)
inactive: [5] 98 % of control | [6] 88 % of control | [7] 89 % of control

CN(C)CCCNc1cc(O)c2c(c1O)C(=O)c1ccccc1C2=O
inactive: dose: 12.5 mg/kg/injection, schedule: Q04DX003 (ip), vehicle: water 102 % of control | dose: 25.0 mg/kg/injection, schedule: Q01DX009 (ip), vehicle: water 109 % of control | dose: 25.0 mg/kg/injection, schedule: Q04DX003 (ip), vehicle: water 100 % of control | dose: 50.0 mg/kg/injection, schedule: Q01DX009 (ip), vehicle: water 120 % of control | dose: 50.0 mg/kg/injection, schedule: Q04DX003 (ip), vehicle: water 115 % of control | dose: 88.0 mg/kg/injection, schedule: Q01DX009 (ip), vehicle: other 110 % of control | dose: 100.0 mg/kg/injection, schedule: Q01DX009 (ip), vehicle: water 116 % of control | dose: 100.0 mg/kg/injection, schedule: Q04DX003 (ip), vehicle: water 103 % of control | dose: 133.0 mg/kg/injection, schedule: Q01DX009 (ip), vehicle: other 117 % of control | dose: 200.0 mg/kg/injection, schedule: Q04DX003 (ip), vehicle: water 111 % of control

O=C(O[Si](Cc1ccccc1)(Cc1ccccc1)Cc1ccccc1)N(CCCl)CCCl
active: dose: 25.0 mg/kg/injection, schedule: Q04DX003 (ip), vehicle: saline 154 % of control | dose: 50.0 mg/kg/injection, schedule: Q04DX002 (ip), vehicle: saline with Tween-80 159 % of control | dose: 50.0 mg/kg/injection, schedule: Q04DX003 (ip), vehicle: saline 214 % of control | [17] 180 % of control
inactive: dose: 12.5 mg/kg/injection, schedule: Q04DX002 (ip), vehicle: saline with Tween-80 111 % of control | dose: 25.0 mg/kg/injection, schedule: Q04DX002 (ip), vehicle: saline with Tween-80 120 % of control

NC1=NC(=O)C(N=O)C(=O)N1 (stereo not drawn)
inactive: [17] 99 % of control | dose: 200.0 mg/kg/injection, schedule: Q04DX002 (ip), vehicle: saline with Tween-80 107 % of control | dose: 400.0 mg/kg/injection, schedule: Q04DX002 (ip), vehicle: saline with Tween-80 106 % of control

N#CC(C#N)/C=C/[Se]c1ccccc1
inactive: [18] 104 % of control | [19] 98 % of control | [20] 109 % of control

O=S(=O)(Nc1ncccn1)c1ccc(NCc2c3ccccc3nc3cc(Cl)ccc23)cc1
inactive: [11] 87 % of control | [12] 86 % of control | [13] 91 % of control

Clc1ccc2nc(C(Cl)(Cl)Cl)nc(NCCN3CCCCC3)c2c1
inactive: [14] 100 % of control | [15] 100 % of control | [16] 90 % of control

C/C=C/CC(/C(C)=N\[N+](C)(C)C)c1ccccc1 (stereo not drawn)
inactive: [18] 107 % of control | [19] 97 % of control | [20] 99 % of control

CCOC(=O)c1c(O)cc(C)[nH]c1=O
inactive: [14] 103 % of control and 96 % of control | [15] 100 % of control and 94 % of control and 98 % of control | [16] 103 % of control and 106 % of control and 93 % of control | dose: 400.0 mg/kg/injection, schedule: Q01DX009 (ip), vehicle: saline with Tween-80 104 % of control and 106 % of control and 122 % of control
